How the values were obtained:
[1] = test system: HFF (Human Foreskin Fibroblast) cells; assay: Cytotoxicity test (sulforhodamine B) on HFF cells; assay type: cell-based
Experimental: Culturing of HFF (Human Foreskin Fibroblast Cells in 96-Well Plate From a 75 cm^2 flask of HFF cells at confluence, the culture medium was removed, and then 2 mL of trypsin-EDTA (0.025% trypsin and 0.01% EDTA—Ethylenediaminetetraacetic acid) was added (at 37° C.). The flask was then briefly rinsed and the trypsin was removed. 2 mL of trypsin-EDTA was subsequently added and the flask was incubated for 5 minutes in an oven at 37° C.
5 ml of culture medium (minimal essential medium—MEM (PARA Laboratories GmbH)+Glutamine (2 mM)+Fungizone (2.5 μg/mL)+Penicillin (100 units/mL)+Streptomycin (100 μg/mL)+decomplemented Foetal Calf Serum 15%) was added and then the flask was rinsed with a pipette. The medium and cells were recovered in a tube. Counting on the Malassez counting chamber was then performed.
The cells were subsequently centrifuged at 200 g, for 7 minutes, and then the supernatant was removed. The pellet was taken up in the culture medium in a manner so as to obtain 10^5 cells/mL.
200 μL of this suspension per well was distributed, while leaving empty the wells of columns 1 and 12 and rows A and H. The wells that were left empty were filled with 200 μL of culture medium in order to prevent evaporation.
When the cells had reached confluence in the wells (about 48 hours), the medium was aspirated by making use of a vacuum extractor pump and then 200 μL of culture medium containing the various polysaccharides to be tested (the latter are tested at 50, 100, and 200 μg/mL) was added.
Each concentration was tested in triplicate. […]
The proteins were solubilised by using 200 μL of Tris-Base (10 mM) for 5 minutes on a plate with stirring at ambient temperature. The OD (Optical Density) at 550 nm was measured by making use of a microplate reader (Multiskan FC357, Thermo Scientific).
The mean of the OD and the standard deviation have been calculated for each sample tested in order to arrive at a conclusion with respect to the toxicity of the products.

Nosema ceranae = assay: Inhibitory activity in vivo on Nosema in honey bees
Experimental: The results presented here have been obtained from the summer honey bees.
After recovering one brood chamber frame (or more as per the needs in honey bees) from the apiary by means of a glass frame holder, the latter was placed in an oven at 34° C. for a period of 24 to 48 hours in a manner so as to allow the honey bees to emerge from their cells. Then, the young honey bees were retrieved from the frame by making use of a pair of entomologist's forceps and placed in the beekeeping boxes (supers) on the basis of 50 honey bees/box. ⅙^th of a tube stick of PseudoQueen (Contech Enterprises, Canada) was added in each of the beekeeping boxes.
Each polysaccharide treatment was carried out in triplicate (three boxes/treatment). Each test operation contained a “healthy honey bees” control (honey bees not infected and not treated), an “infected honey bees” control (honey bees infected experimentally and not treated) and a fumagillin control; with these controls also being in triplicate. […]
Over the course of the post-Infection phase (a time period of 20 days), the dead honey bees were counted and removed on a daily basis from each of the boxes in order to track and monitor mortality. […]

Row | Compound | Conclusion ([1]; HFF cells, culture medium containing 20% of DMSO, 96 hours) | Viability (%) ([1]; HFF cells, positive control: culture medium containing 20% of DMSO, 96 hours of incubation) | Viability (%) ([1]; human, 96 h, 1 μg/mL) | Mortality at 20 days post-infection (%) (Nosema ceranae; honey bees infected with 125,000 N. ceranae spores, syrup supplemented with 1 μg/mL fumagillin, fed 3 days before and 20 days after infection) | Change in parasite load (decrease) (Nosema ceranae; spore count at 20 days vs infected honey bees control, syrup with 1 μg/mL fumagillin)
1 | C[S+](C)[O-] [DMSO Positive Control, DMSO] | Cytotoxic: control validated | 6.8 +/− 1.4% |  |  | 
2 | CO[C@@H]1[C@H](OC(=O)/C=C/C=C/C=C/C=C/C(=O)O)CC[C@]2(CO2)[C@H]1[C@@]1(C)O[C@@H]1CC=C(C)C [Fumagillin Control, fumagillin] |  |  | 99.1 +/− 12.2% | 25.9 +/− 16.7% | Decrease of 63.4%

— US9827277B2, “Sulphated polysaccharide composition” (UNIVERSITÉ BLAISE PASCAL—CLERMONT II, priority 2012, dated 2017)
